Data on 27 compounds can be found in US11738019B2, “Substituted heterocycles as antiviral agents” (ENANTA PHARMACEUTICALS, INC., priority 2019, dated 2023).

One series concerns HBV (2.2.15 cells). The series is described as follows: HBV viral product reduction in 2.2.15 cells (qPCR / HBsAg or HBeAg ELISA). It counts as cell-based. The conditions noted are these: Hepatitis B virus, 120 h, day 5 post treatment, concentration reducing viral product accumulation in cell lysates or supernatants by 50% relative to no drug controls. How it is done:
2.2.15 cells are passaged upon attaining confluency in DMEM/F12 media in the presence of 10% FBS, Penn/Strep, and 250 ug/mL G418. Novel compounds are 5 fold serially diluted in DMSO and added to 96 well plates containing 35,000 cells/well at a 1:200 dilution so that the final concentration of DMSO is 0.5%. On day 5, post treatment cell lysates and supernatants are harvested for analysis.
Cells are lysed using Agilent Sidestep Lysis buffer, diluted 1:100 and quantified via quantitative real time PCR. Commercially available ELISA kits are used to quantitate the viral proteins HBsAg (Alpco) or HBeAg (US Biological) by following the manufacturer's recommended protocol after diluting samples to match the linear range of their respective assays. Irrespective of readout, compound concentrations that reduce viral product accumulation in the cell lysates or supernatants by 50% relative to no drug controls (EC50) are reported; EC50 ranges are as follows: A<0.1 μM; B 0.1-1 μM; C>1 μM.

Series [1] in a line: compound induced cellular toxicity in HepG2 cells (ATPlite 1Step). It counts as cell-based. The conditions noted are these: human, three days, concentration reducing total ATP levels by 50% relative to no drug controls. How it is done:
At day 3, post seeding cells are treated with ATPlite 1Step according to the manufacturer's instructions.

`Cn1cc(-c2cc3c(c4occc24)C[C@@H](C(C)(C)C)n2cc(C(=O)O)c(=O)cc2-3)cn1` [Example 15, (S)-5-(tert-butyl)-12-(1-methyl-1H-pyrazol-4-yl)-9-oxo-4,9-dihydro-5H-furo[2,3-f]pyrido[2,1-a]isoquinoline-8-carboxylic acid]: the EC50 with HBV (2.2.15 cells) is less than 0.1 µM. Also, the CC50 at 3 days in series [1] was greater than 25 µM.

For `CC(C)(C)[C@@H]1Cc2c(cc(N3CCC(F)(F)C3)c3ccoc23)-c2cc(=O)c(C(=O)O)cn21` [Example 19, (S)-5-(tert-butyl)-12-(3,3-difluoropyrrolidin-1-yl)-9-oxo-4,9-dihydro-5H-furo[2,3-f]pyrido[2,1-a]isoquinoline-8-carboxylic acid], the EC50 in the series on HBV (2.2.15 cells) was less than 0.1 µM. Further, in series [1], the CC50 at 3 days lay within 10 to 25 µM.

In turn, `CC(C)(C)[C@@H]1Cc2c(cc(-c3cnco3)c3ccoc23)-c2cc(=O)c(C(=O)O)cn21` [Example 12, (S)-5-(tert-butyl)-12-(oxazol-5-yl)-9-oxo-4,9-dihydro-5H-furo[2,3-f]pyrido[2,1-a]isoquinoline-8-carboxylic acid] yielded an EC50 in the series on HBV (2.2.15 cells) of less than 0.1 µM. In series [1], this compound returned a CC50 at 3 days greater than 25 µM. For the compound `CC(C)(C)[C@@H]1Cc2c(cc(-c3cnco3)c3occc23)-c2cc(=O)c(C(=O)O)cn21` [Example 22, (S)-5-(tert-butyl)-12-(oxazol-5-yl)-9-oxo-4,9-dihydro-5H-furo[3,2-f]pyrido[2,1-a]isoquinoline-8-carboxylic acid], in the series with HBV (2.2.15 cells), the EC50 lay within 0.1 to 1 µM.

In the series with HBV (2.2.15 cells), `CC(C)(C)[C@@H]1Cc2c(cc(-c3ccsc3)c3ccoc23)-c2cc(=O)c(C(=O)O)cn21` [Example 7, (S)-5-(tert-butyl)-9-oxo-12-(thiophen-3-yl)-4,9-dihydro-5H-furo[2,3-f]pyrido[2,1-a]isoquinoline-8-carboxylic acid] came in with an EC50 of less than 0.1 µM. In series [1], this compound displayed a CC50 at 3 days of 10 to 25 µM. The like results for `CC(C)(C)[C@@H]1Cc2c(cc(Cl)c3occc23)-c2cc(=O)c(C(=O)O)cn21` [Example 1, (S)-5-(tert-butyl)-12-chloro-9-oxo-4,9-dihydro-5H-furo[3,2-f]pyrido[2,1-a]isoquinoline-8-carboxylic acid] were, in that order, less than 0.1 µM and greater than 25 µM. Take `Cn1nccc1-c1cc2c(c3ccoc13)C[C@@H](C(C)(C)C)n1cc(C(=O)O)c(=O)cc1-2` [Example 4, (S)-5-(tert-butyl)-12-(1-methyl-1H-pyrazol-5-yl)-9-oxo-4,9-dihydro-5H-furo[3,2-f]pyrido[2,1-a]isoquinoline-8-carboxylic acid]: in the series with HBV (2.2.15 cells), the EC50 was less than 0.1 µM. In turn, `CC(C)(C)[C@@H]1Cc2c(cc(-c3cn[nH]c3)c3occc23)-c2cc(=O)c(C(=O)O)cn21` [Example 27, (S)-5-(tert-butyl)-9-oxo-12-(1H-pyrazol-4-yl)-4,9-dihydro-5H-furo[3,2-f]pyrido[2,1-a]isoquinoline-8-carboxylic acid] gave an EC50 in the series with HBV (2.2.15 cells) greater than 1 µM. On to `CC(C)(C)[C@@H]1Cc2c(cc(-c3ccoc3)c3occc23)-c2cc(=O)c(C(=O)O)cn21` [Example 13, (S)-5-(tert-butyl)-12-(furan-3-yl)-9-oxo-4,9-dihydro-5H-furo[3,2-f]pyrido[2,1-a]isoquinoline-8-carboxylic acid], for which, in the series with HBV (2.2.15 cells), the EC50 was less than 0.1 µM. The compound also showed a CC50 at 3 days in series [1] of 10 to 25 µM. The corresponding values for `CC(C)(C)[C@@H]1Cc2c(cc(-c3cnsc3)c3ccoc23)-c2cc(=O)c(C(=O)O)cn21` [Example 11, (S)-5-(tert-butyl)-12-(isothiazol-4-yl)-9-oxo-4,9-dihydro-5H-furo[2,3-f]pyrido[2,1-a]isoquinoline-8-carboxylic acid] are less than 0.1 µM and greater than 25 µM. With `Cn1cc(-c2cc3c(c4ccoc24)C[C@@H](C(C)(C)C)n2cc(C(=O)O)c(=O)cc2-3)cn1` [Example 5, (S)-5-(tert-butyl)-12-(1-methyl-1H-pyrazol-4-yl)-9-oxo-4,9-dihydro-5H-furo[3,2-f]pyrido[2,1-a]isoquinoline-8-carboxylic acid], the EC50 with HBV (2.2.15 cells) is greater than 1 µM. In addition, in series [1], the CC50 at 3 days was greater than 25 µM. Compound `CC(C)(C)[C@@H]1Cc2c(cc(N3CCCC3)c3occc23)-c2cc(=O)c(C(=O)O)cn21` [Example 21, (S)-5-(tert-butyl)-9-oxo-12-(pyrrolidin-1-yl)-4,9-dihydro-5H-furo[3,2-f]pyrido[2,1-a]isoquinoline-8-carboxylic acid] displayed an EC50 in the series with HBV (2.2.15 cells) of 0.1 to 1 µM. In turn, `CC(C)(C)[C@@H]1Cc2c(cc(-c3cnsc3)c3occc23)-c2cc(=O)c(C(=O)O)cn21` [Example 29, (S)-5-(tert-butyl)-12-(isothiazol-4-yl)-9-oxo-4,9-dihydro-5H-furo[3,2-f]pyrido[2,1-a]isoquinoline-8-carboxylic acid] displayed an EC50 in the series on HBV (2.2.15 cells) greater than 1 µM. Take `CC(C)(C)[C@@H]1Cc2c(cc(-c3cccs3)c3occc23)-c2cc(=O)c(C(=O)O)cn21` [Example 24, (S)-5-(tert-butyl)-9-oxo-12-(thiophen-2-yl)-4,9-dihydro-5H-furo[3,2-f]pyrido[2,1-a]isoquinoline-8-carboxylic acid]: the EC50 in the series on HBV (2.2.15 cells) is greater than 1 µM. `CC(C)(C)[C@@H]1Cc2c(cc(-c3cccs3)c3ccoc23)-c2cc(=O)c(C(=O)O)cn21` [Example 10, (S)-5-(tert-butyl)-9-oxo-12-(thiophen-2-yl)-4,9-dihydro-5H-furo[2,3-f]pyrido[2,1-a]isoquinoline-8-carboxylic acid]: the EC50 in the series with HBV (2.2.15 cells) was less than 0.1 µM. In addition, the CC50 at 3 days in series [1] was 10 to 25 µM. `CC(C)(C)[C@@H]1Cc2c(cc(-c3ccn[nH]3)c3ccoc23)-c2cc(=O)c(C(=O)O)cn21` [Example 6, (S)-5-(tert-butyl)-9-oxo-12-(1H-pyrazol-5-yl)-4,9-dihydro-5H-furo[2,3-f]pyrido[2,1-a]isoquinoline-8-carboxylic acid] displayed an EC50 with HBV (2.2.15 cells) of less than 0.1 µM. Moreover, the CC50 at 3 days in series [1] was 10 to 25 µM. The compound `CC(C)(C)[C@@H]1Cc2c(cc(-c3cscn3)c3ccoc23)-c2cc(=O)c(C(=O)O)cn21` [Example 17, (S)-5-(tert-butyl)-9-oxo-12-(thiazol-4-yl)-4,9-dihydro-5H-furo[2,3-f]pyrido[2,1-a]isoquinoline-8-carboxylic acid] showed an EC50 with HBV (2.2.15 cells) of less than 0.1 µM. In series [1], this compound returned a CC50 at 3 days greater than 25 µM. Take `CC(C)(C)[C@@H]1Cc2c(cc(-c3ccoc3)c3ccoc23)-c2cc(=O)c(C(=O)O)cn21` [Example 3, (S)-5-(tert-butyl)-12-(furan-3-yl)-9-oxo-4,9-dihydro-5H-furo[2,3-f]pyrido[2,1-a]isoquinoline-8-carboxylic acid]: in the series on HBV (2.2.15 cells), the EC50 was less than 0.1 µM. The compound further registered a cytotoxic concentration (CC50) at 3 days in series [1] greater than 25 µM. In the series with HBV (2.2.15 cells), `CC(C)(C)[C@@H]1Cc2c(cc(Cl)c3ccoc23)-c2cc(=O)c(C(=O)O)cn21` [Example 2, (S)-5-(tert-butyl)-12-chloro-9-oxo-4,9-dihydro-5H-furo[2,3-f]pyrido[2,1-a]isoquinoline-8-carboxylic acid] showed a 50% effective concentration (EC50) of less than 0.1 µM. Moreover, the CC50 at 3 days in series [1] is greater than 25 µM. Take `CC(C)(C)[C@@H]1Cc2c(ccc3occc23)-c2cc(=O)c(C(=O)O)cn21` [Example 31, (S)-5-(tert-butyl)-9-oxo-4,9-dihydro-11-furo[3,2-f]pyrido[2,1-a]isoquinoline-8-carboxylic acid]: the EC50 in the series with HBV (2.2.15 cells) was greater than 1 µM. In the series on HBV (2.2.15 cells), `CC(C)(C)[C@@H]1Cc2c(cc(N3CCCC3)c3ccoc23)-c2cc(=O)c(C(=O)O)cn21` [Example 18, (S)-5-(tert-butyl)-9-oxo-12-(pyrrolidin-1-yl)-4,9-dihydro-5H-furo[2,3-f]pyrido[2,1-a]isoquinoline-8-carboxylic acid] gave an EC50 of less than 0.1 µM. The CC50 at 3 days in series [1] was greater than 25 µM. Regarding `CC(C)(C)[C@@H]1Cc2c(cc(-c3cscn3)c3occc23)-c2cc(=O)c(C(=O)O)cn21` [Example 30, (S)-5-(tert-butyl)-9-oxo-12-(thiazol-4-yl)-4,9-dihydro-5H-furo[3,2-f]pyrido[2,1-a]isoquinoline-8-carboxylic acid], the EC50 with HBV (2.2.15 cells) is greater than 1 µM. Consider `CC(C)(C)[C@@H]1Cc2c(cc(-c3ccco3)c3occc23)-c2cc(=O)c(C(=O)O)cn21` [Example 26, (S)-5-(tert-butyl)-12-(furan-2-yl)-9-oxo-4,9-dihydro-5H-furo[3,2-f]pyrido[2,1-a]isoquinoline-8-carboxylic acid], for which the EC50 with HBV (2.2.15 cells) is greater than 1 µM.

`CC(C)(C)[C@@H]1Cc2c(cc(-c3ccsc3)c3occc23)-c2cc(=O)c(C(=O)O)cn21` [Example 25, (S)-5-(tert-butyl)-9-oxo-12-(thiophen-3-yl)-4,9-dihydro-5H-furo[3,2-f]pyrido[2,1-a]isoquinoline-8-carboxylic acid] registered an EC50 in the series on HBV (2.2.15 cells) greater than 1 µM.

In the case of `CC(C)(C)[C@@H]1Cc2c(cc(N3CCC(F)(F)C3)c3occc23)-c2cc(=O)c(C(=O)O)cn21` [Example 20, (S)-5-(tert-butyl)-12-(3,3-difluoropyrrolidin-1-yl)-9-oxo-4,9-dihydro-5H-furo[3,2-f]pyrido[2,1-a]isoquinoline-8-carboxylic acid], in the series with HBV (2.2.15 cells), the EC50 was 0.1 to 1 µM.

`Cn1ccc(-c2cc3c(c4ccoc24)C[C@@H](C(C)(C)C)n2cc(C(=O)O)c(=O)cc2-3)n1` [Example 23, (S)-5-(tert-butyl)-12-(1-methyl-1H-pyrazol-3-yl)-9-oxo-4,9-dihydro-5H-furo[3,2-f]pyrido[2,1-a]isoquinoline-8-carboxylic acid]: the EC50 in the series with HBV (2.2.15 cells) is greater than 1 µM. As to `CC(C)(C)[C@@H]1Cc2c(cc(-c3ccn[nH]3)c3occc23)-c2cc(=O)c(C(=O)O)cn21` [Example 28, (S)-5-(tert-butyl)-9-oxo-12-(1H-pyrazol-5-yl)-4,9-dihydro-5H-furo[3,2-f]pyrido[2,1-a]isoquinoline-8-carboxylic acid], the EC50 in the series on HBV (2.2.15 cells) is greater than 1 µM.

What is called EC50 is the concentration needed to bring the measured effect to its halfway point. Broadly, the CC50 is the concentration at which the toxic effect on the cells reaches its halfway point. A low value points to harm at low concentration.
